Measurements reported in US12454564B2, “Compositions and methods for T cell engineering” (Gracell Biotechnologies (Shanghai) Co., Ltd., priority 2018, dated 2025).
“Also recorded” adds a separate entry of the source.

How the values were obtained:
Assay in all cases: gRNA knockout efficiency
CD2 = format: cell-based
CD7 = settings: used together with TRAC-gRNA1
Procedure: (§1) For gene editing, 3 μg Cas9 protein and 1.5 μg gRNA were mixed in 20 μl and incubated at 37° C. or room temperature for 15 minutes to form ribonucleoprotein (RNP). Then RNP was transfected into T cells by Lonza 4D Nucleofector®. Gene knockout efficiency was determined by the ratio of the cells expressing the protein as detected by flow cytometry (FACS).
For gene editing, 3 μg Cas9 protein and 1.5 μg gRNA were mixed in 20 μl and incubated at 37° C. or room temperature for 15 minutes to form ribonucleoprotein (RNP). Then RNP was transfected into T cells by Lonza 4D Nucleofector®. Gene knockout efficiency was determined by the ratio of the cells expressing the protein as detected by flow cytometry.

TCR = system: TCR
Procedure: as §1
First, gRNA sequences targeting the exon of the TCR conserved region were designed at http://crispr.mit.edu, and two gRNA sequences with scores above 80 were selected for higher knockout efficiency. For the gRNA primer, the forward primer comprises a T7 promotor followed by 20 bp of the target sequence, and the reverse primer has 20 bp of the complementary sequence. Plasmids were used as PCR template. After purification, T7-PCR product was further used as the template for MEGAshortscript® T7 kit to obtain RNA. The RNA was purified with a MEGAclear® column and eluted with RNA-free water. Cas9 plasmid was purchased from Addgene.
Meanwhile, the knockout efficiency of the gRNA was analyzed by T7E1, TIDE and flow cytometry.
For gene editing, 3 μg Cas9 protein and 1.5 μg gRNA were mixed in 20 μl and incubated at 37° C. or room temperature for 15 minutes to form ribonucleoprotein (RNP). […] Gene knockout efficiency was determined by the ratio of the cells expressing the protein as detected by flow cytometry.

## CD2 gRNA2: gRNA GTGCCACAAAGACCATCAAG (SEQ ID NO 30) (listed as DNA, chemistry not given here)
CD2
  CD2 knockout efficiency: the highest CD2 knockout efficiencies

## CD7-gRNA1: gRNA GAGGTCAATGTCTACGGCTC (SEQ ID NO 25) (listed as DNA, chemistry not given here)
CD7
  CD7 knockout efficiency: high knockout efficiencies; also recorded: obviously better

## CD7-gRNA4: gRNA GGAGCAGGTGATGTTGACGG (SEQ ID NO 28) (listed as DNA, chemistry not given here)
CD7
  CD7 knockout efficiency: obviously better

## TRAC-gRNA2: gRNA TCAGGGTTCTGGATATCTGT (SEQ ID NO 21) (listed as DNA, chemistry not given here)
TCR
  knockout efficiency for TCR: high knockout efficiencies
